In PubChem BioAssay AID330 (DTP/NCI, 2004):
“And” between values parts separate entries of the source, which are not always exact repeats. Equal values may be shown once. Toxic doses and inconclusive results are not listed.

Tested on: P388 leukemia ip, CD2F1 mice, survival T/C
Assay: NCI In Vivo Anticancer Drug Screen. Data for tumor model P388 Leukemia (intraperitoneal) in CD2F1 (CDF1) mice
Conditions: endpoint: median survival time, higher = longer survival
In short: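 Mice carrying the transplanted tumor received test compound or vehicle. Survival was recorded in each group, and the value is the treated-group measurement divided by that of the vehicle-treated control group.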

[1] = dose: 60.0 mg/kg/injection, schedule: Q01DX005 (ip), vehicle: saline with Tween-80
[2] = dose: 120.0 mg/kg/injection, schedule: Q01DX005 (ip), vehicle: saline with Tween-80
[3] = dose: 50.0 mg/kg/injection, schedule: Q01DX009 (ip), vehicle: Klucel (hydroxypropylcellulose) (HPC)
[4] = dose: 100.0 mg/kg/injection, schedule: Q01DX009 (ip), vehicle: Klucel (hydroxypropylcellulose) (HPC)
[5] = dose: 200.0 mg/kg/injection, schedule: Q01DX009 (ip), vehicle: Klucel (hydroxypropylcellulose) (HPC)

Compound: CC(=O)OCC1OC(n2cnc3c(=S)nc(N)[nH]c32)CC1OC(C)=O (stereo not drawn)
- T/C (dose: 1.25 mg/kg/injection, schedule: Q04DX003 (ip), vehicle: saline with Tween-80): 102 % of control
- T/C (dose: 2.5 mg/kg/injection, schedule: Q04DX003 (ip), vehicle: saline with Tween-80): 106 % of control
- T/C (dose: 5.0 mg/kg/injection, schedule: Q04DX003 (ip), vehicle: saline with Tween-80): 113 % of control and 123 % of control
- T/C (dose: 20.0 mg/kg/injection, schedule: Q04DX003 (ip), vehicle: saline with Tween-80): 156 % of control and 158 % of control and 159 % of control
- T/C (dose: 30.0 mg/kg/injection, schedule: Q04DX003 (ip), vehicle: saline with Tween-80): 174 % of control

Compound: OC(c1ccc(F)cc1)(C1CC1)C1CC1
- T/C (dose: 100.0 mg/kg/injection, schedule: Q01DX001 (ip), vehicle: saline + alcohol): 98 % of control
- T/C (dose: 200.0 mg/kg/injection, schedule: Q01DX001 (ip), vehicle: saline + alcohol): 99 % of control
- T/C (dose: 400.0 mg/kg/injection, schedule: Q01DX001 (ip), vehicle: saline + alcohol): 101 % of control

Compound: CC(N)P(=O)(O)O (stereo not drawn)
- T/C (dose: 25.0 mg/kg/injection, schedule: Q01DX009 (ip), vehicle: saline): 100 % of control
- T/C (dose: 50.0 mg/kg/injection, schedule: Q01DX009 (ip), vehicle: saline): 115 % of control
- T/C (dose: 100.0 mg/kg/injection, schedule: Q01DX009 (ip), vehicle: saline): 104 % of control and 87 % of control
- T/C (dose: 200.0 mg/kg/injection, schedule: Q01DX009 (ip), vehicle: saline): 106 % of control and 86 % of control

Compound: O=C(NCCN1C(=O)C2C3CCC(O3)C2C1=O)Nc1ccc([N+](=O)[O-])cc1[N+](=O)[O-] (stereo not drawn)
- T/C [1]: 91 % of control
- T/C [2]: 91 % of control

Compound: CSc1nc(C#N)c(N)s1
- T/C [1]: 101 % of control
- T/C [2]: 95 % of control
- T/C (dose: 240.0 mg/kg/injection, schedule: Q01DX005 (ip), vehicle: saline with Tween-80): 95 % of control

Compound: CC1(C)CC(OP(=[Se])(OC2CC(C)(C)N(O)C(C)(C)C2)c2ccccc2)CC(C)(C)N1O
- T/C (dose: 12.5 mg/kg/injection, schedule: Q01DX001 (ip), vehicle: Klucel (hydroxypropylcellulose) (HPC)): 102 % of control
- T/C (dose: 25.0 mg/kg/injection, schedule: Q01DX001 (ip), vehicle: Klucel (hydroxypropylcellulose) (HPC)): 102 % of control
- T/C (dose: 50.0 mg/kg/injection, schedule: Q01DX001 (ip), vehicle: Klucel (hydroxypropylcellulose) (HPC)): 105 % of control

Compound: CCN(CC)C(=O)CC(c1ccccc1)N(C)C (stereo not drawn)
- T/C (dose: 60.0 mg/kg/injection, schedule: Q01DX005 (ip), vehicle: saline): 98 % of control
- T/C (dose: 120.0 mg/kg/injection, schedule: Q01DX005 (ip), vehicle: saline): 87 % of control

Compound: Cc1ccc(CC2C=CCN2)cc1 (stereo not drawn)
- T/C (dose: 100.0 mg/kg/injection, schedule: Q01DX001 (ip), vehicle: distilled water + alcohol): 99 % of control
- T/C (dose: 200.0 mg/kg/injection, schedule: Q01DX001 (ip), vehicle: distilled water + alcohol): 100 % of control

Compound: Clc1cc(CBr)c(CBr)cc1Cl
- T/C (dose: 3.13 mg/kg/injection, schedule: Q01DX009 (ip), vehicle: saline with Tween-80): 95 % of control
- T/C (dose: 6.25 mg/kg/injection, schedule: Q01DX009 (ip), vehicle: saline with Tween-80): 100 % of control
- T/C (dose: 12.5 mg/kg/injection, schedule: Q04DX003 (ip), vehicle: saline with Tween-80): 113 % of control
- T/C (dose: 25.0 mg/kg/injection, schedule: Q04DX003 (ip), vehicle: saline with Tween-80): 109 % of control

Compound: O=C(c1ccccc1)c1c(-c2ccccc2)c(C(=O)c2ccccc2)n2ccccc12
- T/C [3]: 108 % of control
- T/C [4]: 105 % of control
- T/C [5]: 93 % of control

Compound: Cl/C(=N\Nc1ccccc1)c1ccccc1
- T/C (dose: 3.13 mg/kg/injection, schedule: Q01DX009 (ip), vehicle: Klucel (hydroxypropylcellulose) (HPC)): 100 % of control
- T/C (dose: 6.25 mg/kg/injection, schedule: Q01DX009 (ip), vehicle: Klucel (hydroxypropylcellulose) (HPC)): 106 % of control
- T/C (dose: 7.5 mg/kg/injection, schedule: Q01DX001 (ip), vehicle: saline sonified): 109 % of control
- T/C (dose: 12.5 mg/kg/injection, schedule: Q01DX009 (ip), vehicle: Klucel (hydroxypropylcellulose) (HPC)): 104 % of control
- T/C (dose: 15.0 mg/kg/injection, schedule: Q01DX001 (ip), vehicle: saline sonified): 109 % of control
- T/C (dose: 30.0 mg/kg/injection, schedule: Q01DX001 (ip), vehicle: saline sonified): 109 % of control

Compound: Cc1ccc(NC(=S)SCc2ccc(Cl)cc2)cc1Br
- T/C [3]: 105 % of control and 123 % of control
- T/C (dose: 50.0 mg/kg/injection, schedule: Q01DX009 (ip), vehicle: suspension in saline): 109 % of control
- T/C [4]: 114 % of control
- T/C (dose: 100.0 mg/kg/injection, schedule: Q01DX009 (ip), vehicle: suspension in saline): 104 % of control
- T/C [5]: 121 % of control and 122 % of control
- T/C (dose: 200.0 mg/kg/injection, schedule: Q01DX009 (ip), vehicle: suspension in saline): 90 % of control
